One assay deals with T1, Adenosine receptor A1 (Homo sapiens, UniProt P30542).
T1 sequence (P30542 whole entry): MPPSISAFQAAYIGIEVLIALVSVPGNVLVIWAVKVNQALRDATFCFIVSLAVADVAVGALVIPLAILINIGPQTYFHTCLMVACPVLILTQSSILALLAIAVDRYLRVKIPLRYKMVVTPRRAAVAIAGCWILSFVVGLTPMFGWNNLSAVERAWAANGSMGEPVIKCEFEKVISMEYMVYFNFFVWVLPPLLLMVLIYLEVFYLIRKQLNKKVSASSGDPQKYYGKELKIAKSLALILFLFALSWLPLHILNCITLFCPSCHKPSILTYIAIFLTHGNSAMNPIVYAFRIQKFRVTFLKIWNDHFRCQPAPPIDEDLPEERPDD
Nature of the assay: Displacement of [3H]CCPA from human adenosine A1 receptor expressed in CHO cells after 3 hrs by scintillation counting method. It is filed as cell-based. (In general: Loss of bound radioactivity is the signal in a displacement assay; it reports binding, not function.)

Assay [1] is filed under the species Homo sapiens. Description: Selectivity ratio of Ki for displacement of [3H]CCPA from human adenosine A1 receptor expressed in CHO cells to Ki for displacement of [3H]NECA from human adenosine A2A receptor expressed in CHO cells. It counts as cell-based.
For assay [2], the target named is T2, Adenosine receptor A2a (Homo sapiens, UniProt P29274). Description: Displacement of [3H]NECA from human adenosine A2A receptor expressed in CHO cells after 3 hrs by scintillation counting method. It is filed as cell-based.
T2 sequence (P29274 whole entry): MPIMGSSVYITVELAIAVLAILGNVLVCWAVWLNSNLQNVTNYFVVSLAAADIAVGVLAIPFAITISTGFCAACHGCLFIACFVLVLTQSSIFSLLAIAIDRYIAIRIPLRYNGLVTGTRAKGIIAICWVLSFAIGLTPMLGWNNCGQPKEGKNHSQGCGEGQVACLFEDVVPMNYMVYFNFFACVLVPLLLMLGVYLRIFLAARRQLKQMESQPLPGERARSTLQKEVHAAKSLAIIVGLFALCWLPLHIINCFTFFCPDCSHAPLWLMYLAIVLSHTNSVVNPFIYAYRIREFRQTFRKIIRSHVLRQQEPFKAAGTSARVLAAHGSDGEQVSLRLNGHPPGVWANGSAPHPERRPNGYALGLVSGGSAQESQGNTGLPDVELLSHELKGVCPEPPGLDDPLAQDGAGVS
For the next assay, the target named is T3, Adenosine receptor A2b (Homo sapiens, UniProt P29275).
T3 sequence (P29275 whole entry): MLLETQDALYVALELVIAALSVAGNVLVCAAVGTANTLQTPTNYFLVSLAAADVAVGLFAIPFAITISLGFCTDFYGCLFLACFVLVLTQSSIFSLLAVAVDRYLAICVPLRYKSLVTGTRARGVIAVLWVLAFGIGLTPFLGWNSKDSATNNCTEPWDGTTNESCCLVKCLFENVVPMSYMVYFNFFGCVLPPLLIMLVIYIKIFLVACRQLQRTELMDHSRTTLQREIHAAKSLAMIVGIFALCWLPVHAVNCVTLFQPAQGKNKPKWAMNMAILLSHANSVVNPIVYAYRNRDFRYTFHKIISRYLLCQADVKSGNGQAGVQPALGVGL
Nature of the assay: Antagonist activity at human adenosine A2B receptor expressed in CHO cells assessed as inhibition of NECA-induced increase in cAMP accumulation preincubated for 10 mins followed by NECA addition by GloSensor cAMP assay. It is filed as functional, cell-based. For orientation: Cyclic AMP is a second messenger, typically raised through Gs and lowered through Gi signalling.

The target of a further assay is T4, Adenosine receptor A3 (Homo sapiens, UniProt P0DMS8).
T4 sequence (P0DMS8 whole entry): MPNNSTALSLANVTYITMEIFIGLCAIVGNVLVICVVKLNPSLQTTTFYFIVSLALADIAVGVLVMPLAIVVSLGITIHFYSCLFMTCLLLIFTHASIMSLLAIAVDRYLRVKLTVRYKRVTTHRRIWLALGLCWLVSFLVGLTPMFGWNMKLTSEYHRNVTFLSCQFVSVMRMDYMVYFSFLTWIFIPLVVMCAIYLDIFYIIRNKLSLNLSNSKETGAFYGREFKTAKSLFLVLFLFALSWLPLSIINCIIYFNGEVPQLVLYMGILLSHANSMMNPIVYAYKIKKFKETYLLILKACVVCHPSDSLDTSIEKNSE
Nature of the assay: Displacement of [3H]HEMADO from human adenosine A3 receptor expressed in CHO cells after 3 hrs by scintillation counting method. It counts as cell-based.

Assay [3] deals with T2, Adenosine receptor A2a. Nature of the assay: Antagonist activity at human adenosine A2A receptor expressed in CHO cells assessed as inhibition of NECA-induced increase in cAMP accumulation preincubated for 10 mins followed by NECA addition by GloSensor cAMP assay. It counts as functional, cell-based.
For assay [4], the species on record is Homo sapiens. Description: Selectivity ratio of Ki for displacement of [3H]HEMADO from human adenosine A3 receptor expressed in CHO cells to Ki for displacement of [3H]NECA from human adenosine A2A receptor expressed in CHO cells. It is filed as cell-based.

Some results are limits rather than exact numbers.

What is called Ki is a dissociation constant, usually derived from enzyme kinetics or from competition with a known ligand. A lower Ki goes with tighter binding. By IC50 is commonly meant the midpoint of a concentration-inhibition curve.

Consider `Nc1nc(-c2cccc(O)c2)nc2sc(-c3ccccc3)nc12`, for which the Ki on Adenosine receptor A1 came to 58.5 nM; on Adenosine receptor A2a [2] it was 5 nM; at Adenosine receptor A3, 190 nM. Besides, the Ratio Ki in the assay filed under Homo sapiens [1] amounted to 11.7; in the assay listed under Homo sapiens [4] it was 38. Further, the figures for the IC50 at Adenosine receptor A2b and at Adenosine receptor A2a [3] were greater than 30000 nM and 627 nM, respectively.

Source of the values: ChEMBL document CHEMBL4330140, “Novel human adenosine receptor antagonists based on the 7-amino-thiazolo[5,4-d]pyrimidine scaffold. Structural investigations at the 2-, 5- and 7-positions to enhance affinity and tune selectivity” (Bioorg Med Chem Lett, 2019).
